The results in this text go back to patent publication US8088792B2, “Triazolopyridinone derivatives for use as stearoyl CoA desaturase inhibitors” (Gilead Sciences, Inc., priority 2008, dated 2012).

In this assay the target is T1, Stearoyl-CoA desaturase (SCD) (Rattus norvegicus, UniProt P07308).
T1 construct: The rat liver microsomes were collected according to the procedure described in Ozols (1990) Methods Enzm, 182:225; from tissue
T1 sequence (P07308 1-358): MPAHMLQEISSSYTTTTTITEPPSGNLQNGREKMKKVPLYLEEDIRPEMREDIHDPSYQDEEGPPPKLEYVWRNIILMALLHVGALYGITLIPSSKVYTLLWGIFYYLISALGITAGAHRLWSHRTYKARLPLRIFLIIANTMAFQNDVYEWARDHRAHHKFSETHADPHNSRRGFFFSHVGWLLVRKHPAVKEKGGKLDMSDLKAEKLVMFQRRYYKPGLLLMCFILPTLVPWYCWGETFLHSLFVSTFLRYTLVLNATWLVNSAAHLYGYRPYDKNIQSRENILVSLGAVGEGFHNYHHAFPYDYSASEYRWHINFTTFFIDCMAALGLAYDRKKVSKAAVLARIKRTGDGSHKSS
Put plainly: SCD assay in rat liver microsomes ([3H]stearoyl CoA desaturation, adapted from Talamo and Bloch). The assay is classed as biochemical. Conditions: rat liver microsomes 0.2 mg/ml final, 30 min preincubation, 45 min reaction, room temperature. From the text: The identification of compounds of the invention as SCD inhibitors was readily accomplished using the SCD enzyme and microsomal assay procedure described in Talamo and Bloch (1969) Analytical Biochemistry 29:300-304.
The rat liver microsomes were collected according to the procedure described in Ozols (1990) Methods Enzm, 182:225.
Male Spraque Dawley Rats were placed on regimented fasting protocol for one week to stimulate SCD enzymatic activity. 48-hour periods were alternated between feeding and fasting to induce and down-regulate SCD activity with SCD activity being induced via carbohydrate rich diet prior to liver perfusion and collection.
The rats were anesthetized with Isoflurane inhalation anesthetic, the liver perfused with cold phosphate buffered saline (PBS), weighed, and chilled in cold homogenization buffer (250 mM sucrose, 10 mM Tris, 1 mM EDTA, pH 7.6).
The livers were finely minced and placed in homogenization tube. Homogenization buffer (40 mL) was added to the homogenization tube and the liver homogenized and centrifuged in a pre-chilled […] for 10 min at 4° C.
Following centrifugation, the supernatant was collected and the pellet removed and discarded. The supernatant was centrifuge at 10,000 G for 35 minutes. Following centrifugation, the supernatant was collect and the pellet discarded. The supernatant was then centrifuged in a pre-chilled 45-Ti rotor at 130,000 G (41,000 RPM) for 90 minutes at 4° C.
The supernatant was then aspirated off and the collected microsomal pellet washed in 25 mL of Glycerol PBS (1× PBS 7.4, 20% Glycerol) and resuspended in 4-5 volumes of Glycerol PBS.
The protein concentration of the microsomal preparation was determined by BCA assay (Pierce) and the microsomes were aliquoted and stored at −80° C.
Biobeads were ground to a smaller size in a mortar and pestle and resuspended in 3.6% TCA. The beads were then filtered through […] mesh.
SCD was determined in the desaturase assay buffer. This assay buffer contained 0.1 M Tris buffer, pH 7.2, 2 mM NADH, 4.8 mM ATP, 0.5 mM CoA, 4.8 mM MgCl2, and 0.1% BSA.
1 μl of each compound of Formula I was added to an assay plate by a low volume (0.5-10 μL) multichannel pipette. A DMSO control was also prepared. The microsomes were quickly thawed and added to assay buffer so that a concentration of 0.4 mg/ml was achieved (0.2 mg/ml assay final). 50 μl of the microsome suspension in assay buffer was then added into each well in the compound assay plate, the plate was covered, and the microsomes preincubated with the compounds for 30 minutes on the orbital shaker, 50-75rpm, at room temperature. […]
On the technique in general: Microsomes from liver hold many membrane-bound enzymes, among them those of drug oxidation.

For orientation: IC50 means the midpoint of a concentration-inhibition curve. Read a high IC50 as lower potency. For the compound `O=C(O)c1ccc2nn(Cc3ccc(Cl)c(Cl)c3)c(=O)n2c1` [Compound 1, 2-(3,4-dichlorobenzyl)-3-oxo-2,3-dihydro-[1,2,4]triazolo[4,3-a]pyridine-6-carboxylic acid], the half-maximal inhibitory concentration (IC50) stood at 6.2 µM. Then `CCCCCCNC(=O)c1ccc2nn(Cc3ccc(Cl)c(Cl)c3)c(=O)n2c1` [Compound 2, 2-(3,4-dichlorobenzyl)-N-hexyl-3-oxo-2,3-dihydro-[1,2,4]triazolo[4,3-a]pyridine-6-carboxamide], with 0.19 µM. For `O=C(NCCO)c1ccc2nn(Cc3ccc(Cl)c(Cl)c3)c(=O)n2c1` [Compound 3, 2-(3,4-dichlorobenzyl)-N-(2-hydroxyethyl)-3-oxo-2,3-dihydro-[1,2,4]triazolo[4,3-a]pyridine-6-carboxamide], the IC50 was 0.16 µM. `CC(C)(C)OC(=O)Nc1ccc2nn(Cc3ccc(Cl)c(Cl)c3)c(=O)n2c1` [Compound 4, tert-butyl 2-(3,4-dichlorobenzyl)-3-oxo-2,3-dihydro-[1,2,4]triazolo[4,3-a]pyridin-6-ylcarbamate] showed an IC50 of 3.1 µM.
